# Laboratory results: US4505929A, “Sulfur-substituted diphenyl ethers having antiviral activity” (The Dow Chemical Company, priority 1982, dated 1985)
# Where two headings read alike, the source gives them in different places.
# How the values were obtained:
# Assay type in all cases: cell-based
# [1] = Cytotoxicity to HeLa cells in tissue culture testing; settings: human
# Procedure: (§1) Monolayered HeLa cells in 16 millimeter (mm) tissue culture dishes were treated with 1 ml of culture medium (Eagles medium supplemented with fetal calf serum) containing subject compound at an appropriate concentration or containing no compound at all. Culture media such as those described herein are more fully described in standard texts, as for example, Kuchler's Biochemical Methods in Cell Culture and Virology, Dowden, Hutchinson and Ross, Inc., Stroudsberg, PA (1977). Following treatment, cells were challenged with 0.05 ml of rhinovirus type 1A (RV-1A), rhinovirus type 2 (RV-2) or Coxsackie A21 virus (Cox A21) in culture medium. Some of the compounds were also tested against rhinovirus type 5 (RV-5), rhinovirus type 8 (RV-8) or rhinovirus type 64 (RV-64). Cell controls received no viruses.
# ^x Cytotoxicity figures represent the concentration of the compound,
# micrograms/milliliter (μg/ml) found to be toxic to the cell.
# means "approximately "; "<<" "considerably less than " and "G.I." means
# [2] = tested on: rhinovirus type 1A (RV-1A); test: Tissue culture antiviral test (HeLa cells), RV-1A; settings: Enterovirus, 48 and 72 hours post-treatment, read-out: Lowest concentration necessary to cause a 50 percent reduction in cytopathic effect, RV-1A
# Procedure: as §1
# (§2) ^xx Lowest concentration of the compound (μg/ml) necessary to caus
# (§3) a 50 percent reduction in cytopathic effect.
# rhinovirus type 2 (RV-2) = test: Tissue culture antiviral test (HeLa cells), RV-2; settings: Enterovirus, 48 and 72 hours post-treatment, read-out: Lowest concentration necessary to cause a 50 percent reduction in cytopathic effect, RV-2
# Procedure: as §1, §2, §3
# [3] = tested on: Coxsackie A21 virus (Cox A21); test: Tissue culture antiviral test (HeLa cells), Cox A21; settings: 48 and 72 hours post-treatment, read-out: Lowest concentration necessary to cause a 50 percent reduction in cytopathic effect, Cox A21
# Procedure: as §1, §2, §3
# rhinovirus type 5 (RV-5) = test: Tissue culture antiviral test (HeLa cells), RV-5; settings: Enterovirus, 48 and 72 hours post-treatment, read-out: Lowest concentration necessary to cause a 50 percent reduction in cytopathic effect, RV-5
# Procedure: as §1, §2, §3
# rhinovirus type 8 (RV-8) = test: Tissue culture antiviral test (HeLa cells), RV-8; settings: Enterovirus, 48 and 72 hours post-treatment, read-out: Lowest concentration necessary to cause a 50 percent reduction in cytopathic effect, RV-8
# Procedure: as §1, §2, §3
# [4] = tested on: rhinovirus type 64 (RV-64); test: Tissue culture antiviral test (HeLa cells), RV-64; settings: Enterovirus, 48 and 72 hours post-treatment, read-out: Lowest concentration necessary to cause a 50 percent reduction in cytopathic effect, RV-64
# Procedure: as §1, §2, §3
# [5] = G.I. = growth inhibition: at the concentration shown the compound inhibited growth of the tissue culture, read-out: Cytotoxicity (G.I.)
# [6] = concentration found to be toxic to the cell, observed at 48 and 72 hours, read-out: Cytotoxicity
Compound,EC50 [2],EC50 (rhinovirus type 2 (RV-2)),EC50 [3],EC50 (rhinovirus type 5 (RV-5)),EC50 (rhinovirus type 8 (RV-8)),EC50 [4],"MCC [1, 5]","MCC [1, 6]"
"CS(=O)(=O)c1ccc(Oc2ccc(Cl)cc2)cc1 [Example 2, 4-(4-(Methylsulfonyl)phenoxy)-1-chlorobenzene]",1.25 µg/mL,1.25 µg/mL,0.625 µg/mL,,,,10 µg/mL,
"CC(=O)c1ccc(Oc2ccc(S(C)(=O)=O)cc2)cc1 [Example 3, 1-(4-(4-(Methylsulfonyl)phenoxy)phenyl)ethanone]",25 µg/mL,12.5 µg/mL,< 6.25 µg/mL,25 µg/mL,25 µg/mL,< 6.25 µg/mL,,50 µg/mL
"CS(=O)(=O)c1ccc(Oc2ccc(C(=O)c3ccccc3)cc2)cc1 [Example 4, (4-(4-(Methylsulfonyl)phenoxy)phenyl)phenylmethanone]",,50 µg/mL,< 6.25 µg/mL,,,100 µg/mL,,> 100 µg/mL
"CSc1ccc(Oc2ccc(C#N)cc2)cc1 [Example 5, 4-(4-(Methylthio)phenoxy)benzonitrile]",< 3.12 µg/mL,< 3.12 µg/mL,< 3.12 µg/mL,,,,,6.25 µg/mL
"C[S+]([O-])c1ccc(Oc2ccc(Cl)c(Cl)c2)cc1 (stereo not drawn) [Example 6, 1,2-Dichloro-4-(4-(methylsulfinyl)phenoxy)benzene]",< 0.31 µg/mL,< 0.31 µg/mL,,,,< 0.31 µg/mL,,12.5 µg/mL
"C[S+]([O-])c1ccc(Oc2ccc(C#N)cc2)cc1 (stereo not drawn) [Example 7, 4-(4-(Methylsulfinyl)phenoxy)benzonitrile]",3.12 µg/mL,3.12 µg/mL,3.12 µg/mL,,,,,25 µg/mL
"CS(=O)(=O)c1ccc(Oc2ccc(C#N)cc2)cc1 [Example 8, 4-(4-(Methylsulfonyl)phenoxy)benzonitrile]",12.5 µg/mL,12.5 µg/mL,< 6.25 µg/mL,12.5 µg/mL,25 µg/mL,12.5 µg/mL,,50 µg/mL
"CS(=O)(=O)c1ccc(Oc2ccc(Br)cc2)cc1 [Example 9, 1-Bromo-4-(4-(methylsulfonyl)phenoxy)benzene]",< 3.12 µg/mL,< 3.12 µg/mL,< 3.12 µg/mL,12.5 µg/mL,12.5 µg/mL,,,12.5 µg/mL
"O=S(=O)(c1ccccc1)c1ccc(Oc2ccc(Cl)c(Cl)c2)cc1 [Example 10, 4-(4-(Phenylsulfonyl)phenoxy)-1,2-dichlorobenzene]",,6.25 µg/mL,6.25 µg/mL,,,,,50 µg/mL
"CN(C)S(=O)(=O)c1ccc(Oc2ccc(S(=O)(=O)c3ccccc3)cc2)cc1 [Example 11, N,N-Dimethyl-4-(4-(phenylsulfonyl)phenoxy)benzenesulfonamide]",0.625 µg/mL,0.625 µg/mL,0.625 µg/mL,,,,,1.25 µg/mL
"CSc1ccc(Oc2ccc([N+](=O)[O-])cc2[N+](=O)[O-])cc1 [Example 28, 1-(4-(Methylthio)phenoxy)-2,4-dinitrobenzene]",≤ 6.25 µg/mL,< 6.25 µg/mL,≤ 6.25 µg/mL,,,,50 to 100 µg/mL,
"C[S+]([O-])c1ccc(Oc2ccc([N+](=O)[O-])cc2[N+](=O)[O-])cc1 (stereo not drawn) [Example 30, 1-(4-(Methylsulfinyl)phenoxy)-2,4-dinitrobenzene]",,~6.25 µg/mL,6.25 µg/mL,,,,,12.5 µg/mL
"CS(=O)(=O)c1ccc(Oc2ccc([N+](=O)[O-])cc2[N+](=O)[O-])cc1 [Example 31, 1-(4-(Methylsulfonyl)phenoxy)-2,4-dinitrobenzene]",~12.5 µg/mL,~12.5 µg/mL,≤ 6.25 µg/mL,,,,,25 µg/mL

# Further lines, with some results ahead:
EC50 [2],EC50 (rhinovirus type 2 (RV-2)),EC50 [3],EC50 (rhinovirus type 5 (RV-5)),EC50 (rhinovirus type 8 (RV-8)),EC50 [4],Compound,"MCC [1, 5]","MCC [1, 6]"
,,50 µg/mL,,,,"CN(C)S(=O)(=O)c1ccc(Oc2ccc(S(C)(=O)=O)cc2)cc1 [Example 12, N,N-Dimethyl-4-(4-(methylsulfonyl)phenoxy)benzenesulfonamide]",100 µg/mL,
50 µg/mL,,25 µg/mL,,,,"CCN(CC)S(=O)(=O)c1ccc(Oc2ccc(S(C)(=O)=O)cc2)cc1 [Example 13, N,N-Diethyl-4-(4-(methylsulfonyl)phenoxy)benzenesulfonamide]",100 µg/mL,
12.5 µg/mL,≤ 6.25 µg/mL,12.5 µg/mL,,,,"CS(=O)(=O)c1ccc(Oc2ccc(Cl)c(Cl)c2)c(Cl)c1 [Example 14, 4-(2-Chloro-4-(methylsulfonyl)phenoxy)-1,2-dichlorobenzene]",,50 µg/mL
,6.25 µg/mL,,,,,"CS(=O)(=O)c1ccc(Oc2ccc(Cl)c(Cl)c2)c([N+](=O)[O-])c1 [Example 15, 4-(4-(Methylsulfonyl)-2-nitrophenoxy)-1,2-dichlorobenzene]",,> 100 µg/mL
< 6.25 µg/mL,6.25 µg/mL,6.25 µg/mL,,,,"CS(=O)(=O)c1ccc(Oc2ccc(Cl)c(Cl)c2)c(N)c1 [Example 16, 2-(3,4-Dichlorophenoxy)-5-(methylsulfonyl)benzenamine]",,≤ 6.25 µg/mL
12.5 µg/mL,25 µg/mL,12.5 µg/mL,,,,"CS(=O)(=O)c1ccc(Oc2ccc(Cl)c(Cl)c2)c(C#N)c1 [Example 17, 2-(3,4-Dichlorophenoxy)-5-(methylsulfonyl)benzonitrile]",,> 100 µg/mL
6.25 µg/mL,12.5 µg/mL,25 µg/mL,,,12.5 µg/mL,"COc1ccc(Oc2ccc(S(C)(=O)=O)cc2)cc1 [Example 18, 4-(4-(Methylsulfonyl)phenoxy)-1-methoxybenzene]",,> 50 µg/mL
< 3.12 µg/mL,6.25 µg/mL,,12.5 µg/mL,,< 3.12 µg/mL,"Cc1cc(Oc2ccc(Cl)c(Cl)c2)ccc1S(C)(=O)=O [Example 19, 4-(3-Methyl-4-(methylsulfonyl)phenoxy)-1,2-dichlorobenzene]",,> 50 µg/mL
2.5 µg/mL,1.25 µg/mL,2.5 µg/mL,5 µg/mL,5 µg/mL,2.5 µg/mL,"CS(=O)(=O)c1ccc(Oc2ccc(Cc3ccccc3)cc2)cc1 [Example 20, 1-(4-(Methylsulfonyl)phenoxy)-4-(phenylmethyl)benzene]",,5 µg/mL
~25 µg/mL,~25 µg/mL,,,,,"CS(=O)(=O)c1ccc(Oc2ccc(O)cc2)cc1 [Example 21, 4-(4-(Methylsulfonyl)phenoxy)phenol]",,25 µg/mL
2.5 µg/mL,1.25 µg/mL,0.625 µg/mL,~1.25 µg/mL,,,"CS(=O)(=O)c1ccc(Oc2ccc(OC(F)(F)C(Cl)Cl)cc2)cc1 [Example 22, 1-(2,2-Dichloro-1,1-difluoroethoxy)-4-(4-(methylsulfonyl)phenoxy)benzene]",,2.5 µg/mL
2.5 µg/mL,5 µg/mL,2.5 µg/mL,5 µg/mL,5 µg/mL,10 µg/mL,"CS(=O)(=O)c1ccc(Oc2ccc(OCC#N)cc2)cc1 [Example 23, (4-(4-(Methylsulfonyl)phenoxy)phenoxy)acetonitrile]",,10 µg/mL
1.25 µg/mL,,,2.5 µg/mL,,,CCN(CC)CCOc1ccc(Oc2ccc(S(C)(=O)=O)cc2)cc1 [Example 24],,≤ 20 µg/mL
12.5 µg/mL,6.25 µg/mL,< 3.12 µg/mL,,,,"O=S(=O)(c1ccc(Oc2ccc(Cl)c(Cl)c2)cc1)C(F)(F)F [Example 25, 4-(4-((Trifluoromethyl)sulfonyl)phenoxy)-1,2-dichlorobenzene]",,> 50 µg/mL
0.312 µg/mL,0.3 µg/mL,≤ 0.3 µg/mL,0.625 µg/mL,≤ 0.312 µg/mL,0.625 µg/mL,"CCN(CC)S(=O)(=O)c1ccc(Oc2ccc(S(=O)(=O)C(F)(F)F)cc2)cc1 [Example 26, N,N-Diethyl-4-(4-((trifluoromethyl)sulfonyl)phenoxy)benzenesulfonamide]",,0.625 µg/mL
6.25 µg/mL,≤ 6.25 µg/mL,≤ 6.25 µg/mL,,,,"CSc1ccc(Oc2ccc([N+](=O)[O-])cc2)cc1 [Example 27, 1-(Methylthio)-4-(4-nitrophenoxy)benzene]",,12.5 µg/mL
≤ 6.25 µg/mL,≤ 6.25 µg/mL,< 6.25 µg/mL,,,,"C[S+]([O-])c1ccc(Oc2ccc([N+](=O)[O-])cc2)cc1 (stereo not drawn) [Example 29, 1-(Methylsulfinyl)-4-(4-nitrophenoxy)benzene]",,25 µg/mL
12.5 µg/mL,≤ 6.25 µg/mL,< 6.25 µg/mL,,,,"CS(=O)(=O)c1ccc(Oc2ccc([N+](=O)[O-])cc2)cc1 [Example 32, 1-(Methylsulfonyl)-4-(4-nitrophenoxy)benzene]",,50 µg/mL
